Laboratory results published in article PMC5974124, “Equilibrium Thermodynamics, Formation, and Dissociation Kinetics of Trivalent Iron and Gallium Complexes of Triazacyclononane-Triphosphinate (TRAP) Chelators: Unraveling the Foundations of Highly Selective Ga-68 Labeling” (Frontiers in Chemistry, 2018).
Where two headings read alike, the source gives them in different places. Marks after values point to notes of the source that are not given here. One block for each compound: values may come before it.

Legend:
[1] = set-up: method as in Brucher and Sherry, [1990]; conditions: 25°C, ref Brucher and Sherry, [1990]; cited from earlier work
[2] = cited from earlier work; for log β3OH hydrolysis constant: M(OH)3, ref Baes and Mesmer; for log β3OH hydrolysis constant / log β2OH hydrolysis constant / log β1OH hydrolysis constant: [1976]; for log β2OH hydrolysis constant: [M(OH)2]^+; for log β1OH hydrolysis constant: [M(OH)]^2+
[3] = 25°C, cited from earlier work
[4] = Protonation constants of ligands by pH-potentiometry; type: physicochemical; conditions: 0.15 M NaNO3, 25°C
Method: For determining the protonation constants of H6TRAP and H3NOTA ligands three parallel pH-potentiometric titration were made with 0.2 M NaOH in 0.002 M ligand solutions.
For pH measurements and titrations, a Metrohm 785 DMP Titrino titration workstation and a Metrohm-6.0233.100 combined electrode were used. Equilibrium measurements were carried out at a constant ionic strength (0.15 M NaNO3 or NaCl) in 6 mL samples at 25°C. Solutions were stirred and continuously purged with N2. Titrations were performed in a pH range of 1.7–12.0. KH-phthalate (pH = 4.005) and borax (pH = 9.177) buffers were used to calibrate the pH meter. For calculation of [H^+] from measured pH values, the method proposed by Irving et al. was used (Irving et al., [1967]). A 0.01 M HNO3 or HCl solution was titrated with the standardized NaOH solution in the presence of 0.15 M NaNO3 or NaCl. Differences between the measured (pHread) and calculated pH (–log[H^+]) values were used to obtain the equilibrium H^+ concentration from the pH values, measured in the titration experiments. For equilibrium calculations, the stoichiometric water ionic product (pKw) is also needed to calculate [H^+] values in basic conditions. The VNaOH–pHread data pairs of the HNO3–NaOH or HCl–NaOH titration obtained in the pH range 10.5–12.0 have been used to calculate the pKw value (pKw = 13.84). For calculation of the equilibrium constants, the program PSEQUAD (Zekany and Nagypal, [1985]) was used. The standard deviation (SD) of the equilibrium parameters calculated by the program PSEQUAD is defined by Equation (1)
Protonation equilibria of the TRAP^6−, NOTA^3− and Bha^− ligands were studied by pH-potentiometry. The protonation constants (log KiH ) of ligands defined by Equation (3) are listed in Table 1 (standard deviations are shown in parentheses). The charges of ligands and complexes will be indicated when it is necessary.
(3) KiH=[HiL]/[Hi−1L][H^+] i=0,1,2…6

[5] = Stability and protonation constants of Fe^III complexes (pH-potentiometry, spectrophotometry, competition with Bha^−); type: physicochemical; conditions: 0.15 M NaNO3, 25°C
Method: Stability constant of [Fe(Bha)]^2+ complex was determined by spectrophotometry, studying the Fe^III-HBha systems at the absorption band of Fe^III-complex over the wavelength range of 400–800 nm in two sets of experiments. Individual samples were prepared in the first series in which the concentrations of Fe^III and HBha was constant 0.2 and 2.0 mM, while that of the H^+ was varied between […] (eight samples, Figure S1). The H^+ concentration in the samples was adjusted by addition of calculated amounts of 2.0 M HNO3. The ionic strength was constant in the samples with [H^+] < 0.15 M ([H^+]+[Na^+] = 0.15 M). Samples were kept at 25°C for a week. Absorbance values were determined at 11 wavelengths (400, 415, 430, 445, 460, 475, 490, 505, 520, 535, and 550 nm). In the second set, spectrophotometric titrations were done with samples containing HBha ligand in 2.0 mM concentration, whereas the concentration of Fe^III was varied between 0.1–0.3 mM (Figures S2–S4). The pH of the samples was adjusted using concentrated NaOH and HNO3 solutions in the pH range 1.7–11.0 (0.15 M NaNO3 and 25°C). For calculation of the equilibrium constants, the best fit of the absorbance–pH data was obtained by assuming formation of [Fe(Bha)]^2+, [Fe(Bha)2]^+, [Fe(Bha)3], and [Fe(Bha)2(OH)2]^− species (Figure S5). The molar absorptivity of [Fe(Bha)]^2+, [Fe(Bha)2]^+, [Fe(Bha)3] and [Fe(Bha)2(OH)2]^− species were also determined at the same 11 wavelengths in these experiments (Figure S6).
The stability constant of the [Fe(TRAP)]^3− complex has been determined by spectrophotometry, using competition reactions between HTRAP^5− and Bha^− for Fe^III at pH = 10.0. Concentration of [Fe(TRAP)]^3− was 0.2 mM, while that of HBha was varied between 0.0 and 1.5 mM (6 samples). The samples were kept at 25°C for 2 weeks. Absorbance values of the Fe^III-HTRAP^5−-Bha^− systems were determined at 11 wavelengths (400, 415, 430, 445, 460, 475, 490, 505, 520, 535, and 550 nm). The molar absorptivities of [Fe(TRAP)]^3− and [Fe(TRAP)OH]^4− in equilibrium solutions were determined by recording the absorption spectra of 0.1, 0.2, and 0.3 mM solution of [Fe(TRAP)]^3− in the pH range 6.0–12.0. The molar absorptivity of [Fe(Bha)2(OH)2]^− species was determined in the separate experiments. Absorbance and pH values were determined in the samples after equilibration (the time needed to reach the equilibria was determined by spectrophotometry). Spectrophotometric measurements were done using 1.0 cm cells with a Cary 1E spectrophotometer at 25°C. Protonation constants of the Fe^III complex formed with TRAP^6− were determined by direct pH-potentiometric titration at 1:1 metal to ligand ratios (both concentrations were 0.002 M). For calculation of the logKMHiL values, the mL base–pH data used were measured in the pH range 1.7 −12.0.
For pH measurements and titrations, a Metrohm 785 DMP Titrino titration workstation and a Metrohm-6.0233.100 combined electrode were used. Equilibrium measurements were carried out at a constant ionic strength (0.15 M NaNO3 or NaCl) in 6 mL samples at 25°C. Solutions were stirred and continuously purged with N2. Titrations were performed in a pH range of 1.7–12.0. […] For calculation of [H^+] from measured pH values, the method proposed by Irving et al. was used (Irving et al., [1967]). […] Differences between the measured (pHread) and calculated pH (–log[H^+]) values were used to obtain the equilibrium H^+ concentration from the pH values, measured in the titration experiments. […]

[6] = 25°C, cited from earlier work; remark: listed apart in the source
[7] = Fe^III, 25°C, cited from earlier work
[8] = set-up: method as in Notni et al., [2010]; Baranyai et al., [2015]; conditions: Zn^II, ref Notni et al., [2010]; Baranyai et al., [2015]; cited from earlier work
[9] = ref Baes and Mesmer, listed as Fe^3+
[10] = 0.1 M KCl, ref Clarke and Martell, [1991]
[11] = 0.1 M Me4NCl, ref Drahos et al., [2011]
[12] = 0.15 M NaCl, ref Baranyai et al., [2015]
[13] = Ga^III, 0.1 M Me4NCl, ref Simecek et al., [2012]
[14] = 0.2 M KCl, ref Farkas et al., [1998]

SMILES: O=C([O-])CN1CCN(CC(=O)[O-])CCN(CC(=O)[O-])CC1.[Gd+3] [[Gd(NOTA)]]
kOH formation rate constant [1]: 7.1e+07 M⁻¹ s⁻¹

SMILES: [Fe+3] [Fe^III]
log β3OH hydrolysis constant [2]: −12.0
log β3OH hydrolysis constant ([2]; listed as Fe^3+): –12.0
logβ4^OH hydrolysis constant ([2]; [Fe(OH)4]^-, ref Baes and Mesmer, 1976): –21.6
log β2OH hydrolysis constant ([2]; ref Baes and Mesmer): −5.67
log β2OH hydrolysis constant [2, 9]: –5.67
log β1OH hydrolysis constant ([2]; ref Baes and Mesmer): −2.19
log β1OH hydrolysis constant [2, 9]: –2.19

SMILES: O=C([O-])CN(CCN(CC(=O)[O-])Cc1ccccc1[O-])Cc1ccccc1[O-].[Ga+3] [[Ga(HBED)]^−]
logKGa(HBED) stability constant ([3]; 0.1 M KCl, ref Ma et al., [1994]): 38.51

SMILES: [Ga+3] [Ga^III]
log β3OH hydrolysis constant [2]: −8.2
log β2OH hydrolysis constant ([2]; ref Baes and Mesmer): −5.92
log β1OH hydrolysis constant ([2]; ref Baes and Mesmer): −2.97

SMILES: O=C([O-])CN1CCN(CC(=O)[O-])CCN(CC(=O)[O-])CC1.[Er+3] [[Er(NOTA)]]
kOH formation rate constant [1]: 5.5e+07 M⁻¹ s⁻¹

log K1H protonation constant [4]: 11.94(2)
log K2H protonation constant [4]: 5.71(3)
log K3H protonation constant [4]: 3.14(3)
log K4H protonation constant [4]: 1.60(2)
Σlog KiH total ligand basicity ([4]; for TRAP^6− log K3H, K4H, K5H not considered): 22.39
logK M(L)OH [5]: 9.12(4)^e
SMILES: O=C(O)CN1CCN(CC(=O)O)CCN(CC(=O)O)CC1 [NOTA^3−, 1,4,7-triazacyclononane-1,4,7-triacetic acid]
log K1H protonation constant [6, 10]: 11.98
log K2H protonation constant [6, 10]: 5.65
log K3H protonation constant [6, 10]: 3.18
log K1H protonation constant [6, 11]: 13.17
log K2H protonation constant [6, 11]: 5.74
log K3H protonation constant [6, 11]: 3.22
log K4H protonation constant [6, 11]: 1.96
Σlog KiH total ligand basicity [6, 11]: 24.09
log K1H protonation constant [6, 12]: 12.16
log K2H protonation constant [6, 12]: 5.75
log K3H protonation constant [6, 12]: 3.18
log K4H protonation constant [6, 12]: 1.90
Σlog KiH total ligand basicity ([6]; 0.15 M NaCl, for TRAP^6− log K3H, K4H, K5H not considered, ref Baranyai et al., [2015]): 22.99
logK M(L)OH [3, 13]: 9.83
logK MHL protonation constant of complex [3, 13]: 0.9
logK ML stability constant [3, 13]: 29.60
logK ML stability constant [7, 10]: 28.3

SMILES: O=C(NO)c1ccccc1 [Bha^−, benzhydroxamic acid]
log K1H protonation constant [4]: 8.53(3)
logK ML2 [5]: 9.03(2)
logK ML3 [5]: 7.41(3)
logK ML stability constant [5]: 10.80(2)
logβFeL2(OH)2 [5]: 6.68(5)
log K1H protonation constant [6, 14]: 8.69
logK ML2 [7, 14]: 10.12
logK ML3 [7, 14]: 7.60
logK ML stability constant [7, 14]: 11.08

SMILES: O=C([O-])CCP(=O)(O)CN1CCN(CP(=O)(O)CCC(=O)[O-])CCN(CP(=O)(O)CCC(=O)O)CC1.[Zn+2] [[Zn(TRAP)]^4−]
logKML stability constant [8]: 16.07

SMILES: O=C([O-])CN1CCN(CC(=O)[O-])CCN(CC(=O)[O-])CC1.[Ce+3] [[Ce(NOTA)]]
kOH formation rate constant [1]: 6.3e+07 M⁻¹ s⁻¹
